Tests used:
[1] = SOLO I and SOLO II combined, safety; format: in vivo, human
[2] = SOLO I Phase 3 trial, safety assessments (safety population); format: in vivo, human
Description: The study design was consistent with current guidelines from FDA (U.S. Food and Drug Administration. Guidance for Industry Acute Bacterial Skin and Skin Structure Infections: Developing Drugs for Treatment (DRAFT GUIDANCE). Available via Internet at the URL containing: fda.gov/downloads/Drugs/GuidanceComplianceRegulatoryInformation/Guidances/ucm071185.p df) and EMA (European Medicines Agency Committee for Medicinal Products for Human Use. Addendum to the note for guidance on evaluation of medicinal products indicated for treatment of bacterial infections (CHMP/EWP/558/95 REV 2) to address indication-specific clinical data (draft). 2012. Available via Internet at the URL containing: ema.europa.eu/docs/en_GB/document_library/Scientific_guideline/2012/07/WC500129443.pdf) and Foundation for National Institutes of Health guidance was considered for analyses (Talbot G H etl. Clin Infect Dis. 2012. 55(8):1114-1121). The protocol was approved by institutional review boards/ethics committees and all patients provided written informed consent. The study was conducted from January 2011 through October 2012 at 46 study centers in Mexico, Spain, Germany, Romania, Russia, Ukraine, Israel, India, and the United States. […] Aztreonam and metronidazole were permitted for gram-negative and anaerobic cover, respectively.
Safety assessments (Safety Population) included vital signs, electrocardiogram (ECG), clinical chemistry and hematology parameters, reporting of adverse events (AEs) and serious adverse events (SAEs). Treatment-emergent adverse events (TEAEs) were defined as AEs with onset or worsening severity at or after the first dose of study drug through the Safety Follow-up Visit (Day 60+7 days).
For safety assessments, descriptive analyses were performed in the safety population for all safety parameters by treatment group.
The intent-to-treat (ITT) population included all patients randomized into the study. The modified intent-to-treat (mITT) was the primary population for all the efficacy analyses and included all randomized patients who received any study drug. The clinically evaluable (CE) population consisted of all mITT patients who met the inclusion/exclusion criteria, received the full-course of randomized study treatment (for a minimum of 7 days), and had investigator assessment for clinical cure at PTE. The CE population was used to confirm the efficacy analyses. The microbiologically ITT (MicroITT) population consisted of all mITT patients with baseline gram-positive pathogen(s) known to cause ABSSSI and it was used for the secondary efficacy analyses. The microbiologically evaluable (MicroE) population was used to confirm the secondary efficacy analyses and consisted of all patients who were in both the MicroITT and CE populations. The safety population was the primary population for all the safety analyses, and consisted of all patients who were dosed with study drug, irrespective of randomization. Treatment classification was based on the actual treatment received.

[3] = SOLO II Phase 3 trial, safety; format: in vivo, human
Description: Safety profiles, measured at any point up to 60 days after treatment, were similar across treatment groups in SOLO II.

[4] = tested on: S. aureus strains (14 mecC MRSA, 2 mecA MRSA, ATCC 29213 MSSA); test: Broth microdilution MIC determination; format: cell-based, Staphylococcus aureus
Experimental: The S. aureus (SA) strains used in this study were: ATCC 43300 (mecA methicillin-resistant SA [MRSA]); ATCC 33591 (mecA MRSA), ATCC 29213 (methicillin-susceptible SA; quality control strain) and 14 mecC MRSA obtained from the Staten Serum Institute (Copenhagen, Denmark).
Tests with oritavancin included polysorbate-80 (final test concentration of 0.002%) as described (CLSI 2012a; Arhin et al., 2008). Tests with daptomycin included CaCl2 at a concentration of 50 mg/L. MICs were read after 24 h incubation.

[5] = tested on: S. aureus strains (14 mecC MRSA, 2 mecA MRSA, ATCC 29213 MSSA); test: In vitro time-kill assays at free peak and free trough concentrations; format: cell-based, Staphylococcus aureus
Experimental: Viable cell count was determined by serial dilution plating, including the use of 25 g/L charcoal suspension to limit antibiotic carryover. […] Time-kill assays were repeated at least twice independently; results presented are from a representative experiment.
Doubling dilution concentrations of comparator agents were likewise chosen to approximate their fCmax and fCmin levels in plasma when administered at approved dosages for complicated skin and skin structure infections, using pharmacokinetic data and protein binding values from their respective package inserts (DAP [Cubicin®]; LZD [Zyvox®]; VAN [Vancocin®]; Table 3).

CN[C@H](CC(C)C)C(=O)N[C@H]1C(=O)N[C@@H](CC(N)=O)C(=O)N[C@H]2C(=O)N[C@H]3C(=O)N[C@H](C(=O)N[C@H](C(=O)O)c4cc(O)cc(O)c4-c4cc3ccc4O)[C@H](O[C@H]3C[C@](C)(N)[C@@H](O)[C@H](C)O3)c3ccc(c(Cl)c3)Oc3cc2cc(c3O[C@@H]2O[C@H](CO)[C@@H](O)[C@H](O)[C@H]2O[C@H]2C[C@](C)(NCc3ccc(-c4ccc(Cl)cc4)cc3)[C@@H](O)[C@H](C)O2)Oc2ccc(cc2Cl)[C@H]1O [Oritavancin, N^DISACC-(4-(4-chlorophenyl)benzyl)A82846B]
10-15 min: Time to cidality (≧3 log decrease) ([5]; 73617 (mecC), oritavancin ƒCmin 2 mg/L) | Time to cidality (≧3 log decrease) ([5]; 78085 (mecC), oritavancin ƒCmin 2 mg/L) | Time to cidality (≧3 log decrease) ([5]; 78651 (mecC), oritavancin ƒCmin 2 mg/L) | Time to cidality (≧3 log decrease) ([5]; ATCC 29213 (MSSA), oritavancin ƒCmin 2 mg/L) | Time to cidality (≧3 log decrease) ([5]; ATCC 33591 (mecA), oritavancin ƒCmin 2 mg/L)
22.2%: Treatment emergent adverse events considered by investigators as related to study drug ([1]; p=0.002)
2 patients: Discontinuation of study drug due to cellulitis [2]
3.8%: Proportion of patients experiencing a TEAE that led to discontinuation of the study drug [2]
50.9%: Patients reported to experience at least one adverse event ([3]; up to 60 days after treatment)
11.6%: Skin and subcutaneous tissue adverse events [2]
5-10 min: Time to cidality (≧3 log decrease) ([5]; 57147 (mecC), oritavancin ƒCmax 16 mg/L) | Time to cidality (≧3 log decrease) ([5]; 57147 (mecC), oritavancin ƒCmin 2 mg/L) | Time to cidality (≧3 log decrease) ([5]; 70611 (mecC), oritavancin ƒCmin 2 mg/L) | Time to cidality (≧3 log decrease) ([5]; 73348 (mecC), oritavancin ƒCmax 16 mg/L) | Time to cidality (≧3 log decrease) ([5]; 73348 (mecC), oritavancin ƒCmin 2 mg/L) | Time to cidality (≧3 log decrease) ([5]; 73415 (mecC), oritavancin ƒCmax 16 mg/L) | Time to cidality (≧3 log decrease) ([5]; 73415 (mecC), oritavancin ƒCmin 2 mg/L) | Time to cidality (≧3 log decrease) ([5]; 73617 (mecC), oritavancin ƒCmax 16 mg/L) | Time to cidality (≧3 log decrease) ([5]; 73829 (mecC), oritavancin ƒCmin 2 mg/L) | Time to cidality (≧3 log decrease) ([5]; 75814 (mecC), oritavancin ƒCmin 2 mg/L) | Time to cidality (≧3 log decrease) ([5]; 76918 (mecC), oritavancin ƒCmax 16 mg/L) | Time to cidality (≧3 log decrease) ([5]; 76918 (mecC), oritavancin ƒCmin 2 mg/L) | Time to cidality (≧3 log decrease) ([5]; 77431 (mecC), oritavancin ƒCmin 2 mg/L) | Time to cidality (≧3 log decrease) ([5]; 77601 (mecC), oritavancin ƒCmin 2 mg/L) | Time to cidality (≧3 log decrease) ([5]; 77950 (mecC), oritavancin ƒCmin 2 mg/L) | Time to cidality (≧3 log decrease) ([5]; 77964 (mecC), oritavancin ƒCmin 2 mg/L) | Time to cidality (≧3 log decrease) ([5]; 78085 (mecC), oritavancin ƒCmax 16 mg/L) | Time to cidality (≧3 log decrease) ([5]; 78651 (mecC), oritavancin ƒCmax 16 mg/L) | Time to cidality (≧3 log decrease) ([5]; ATCC 29213 (MSSA), oritavancin ƒCmax 16 mg/L) | Time to cidality (≧3 log decrease) ([5]; ATCC 33591 (mecA), oritavancin ƒCmax 16 mg/L) | Time to cidality (≧3 log decrease) ([5]; ATCC 43300 (mecA), oritavancin ƒCmax 16 mg/L) | Time to cidality (≧3 log decrease) ([5]; ATCC 43300 (mecA), oritavancin ƒCmin 2 mg/L)
0.03 µg/mL: MIC ([4]; Staphylococcus aureus, 57147 MRSA (mecC)) | MIC ([4]; Staphylococcus aureus, 73617 MRSA (mecC)) | MIC ([4]; Staphylococcus aureus, 73829 MRSA (mecC)) | MIC ([4]; Staphylococcus aureus, 76918 MRSA (mecC)) | MIC ([4]; Staphylococcus aureus, 77431 MRSA (mecC)) | MIC ([4]; Staphylococcus aureus, 77601 MRSA (mecC)) | MIC ([4]; Staphylococcus aureus, 77950 MRSA (mecC))
No histamine-like reactions occurred: Histamine-like reactions (Red Man syndrome) [2]
safe and well-tolerated: Overall safety and tolerability ([2]; single 1200 mg dose)
4.0%: Infusion site reaction AEs ([2]; post-hoc analysis)
11.0%: Incidence of nausea ([2]; safety population)
7.2%: Incidence of headache ([2]; safety population)
3.7%: Patients with adverse events leading to study drug discontinuation [1]
0.03 to 0.06 µg/mL: MIC range ([4]; mecC strains)
3.4%: Pruritus AEs ([2]; post-hoc analysis)
4.9%: Incidence of diarrhea ([2]; safety population) | Incidence of vomiting ([2]; safety population)
≦5 min: Time to cidality (≧3 log decrease) ([5]; 70611 (mecC), oritavancin ƒCmax 16 mg/L) | Time to cidality (≧3 log decrease) ([5]; 73829 (mecC), oritavancin ƒCmax 16 mg/L) | Time to cidality (≧3 log decrease) ([5]; 75814 (mecC), oritavancin ƒCmax 16 mg/L) | Time to cidality (≧3 log decrease) ([5]; 77431 (mecC), oritavancin ƒCmax 16 mg/L) | Time to cidality (≧3 log decrease) ([5]; 77601 (mecC), oritavancin ƒCmax 16 mg/L) | Time to cidality (≧3 log decrease) ([5]; 77950 (mecC), oritavancin ƒCmax 16 mg/L) | Time to cidality (≧3 log decrease) ([5]; 77964 (mecC), oritavancin ƒCmax 16 mg/L)
55.3%: Patients reported to experience at least one adverse event ([1]; safety population)
21.7%: Treatment emergent adverse events considered by investigators as related to study drug [3]
0.06 µg/mL: MIC90 ([4]; Staphylococcus aureus) | MIC ([4]; Staphylococcus aureus, 70611 MRSA (mecC)) | MIC ([4]; Staphylococcus aureus, 73348 MRSA (mecC)) | MIC ([4]; Staphylococcus aureus, 73415 MRSA (mecC)) | MIC ([4]; Staphylococcus aureus, 75814 MRSA (mecC)) | MIC ([4]; Staphylococcus aureus, 77964 MRSA (mecC)) | MIC ([4]; Staphylococcus aureus, 78085 MRSA (mecC)) | MIC ([4]; Staphylococcus aureus, 78651 MRSA (mecC)) | MIC ([4]; Staphylococcus aureus, ATCC 29213 (MSSA)) | MIC ([4]; Staphylococcus aureus, ATCC 29213 / ATCC 33591 / MRSA / MSSA, ATCC 33591 MRSA (mecA)) | MIC ([4]; Staphylococcus aureus, ATCC 29213 / ATCC 43300 / MRSA / MSSA, ATCC 43300 MRSA (mecA)) | MIC ([4]; Staphylococcus aureus, QC and mecA strains)
2: Cellulitis SAEs considered new events [2]
one: Patients who died during the study ([2]; all determined unrelated to study drug)
7.4%: Frequency of SAEs [2]
